These are literature values, as cited in patent US20070027107A1, “Compositions and methods for treating estrogen-dependent diseases and conditions” (priority 2005, published 2007).

The conditions of this series: free carboxylic acids (without counterion) of alginate residues.

The pKa is the negative logarithm of the acid dissociation constant. As to `O=C[C@@H](O)[C@@H](O)[C@H](O)[C@@H](O)C(=O)O` [G, L-guluronic acid], the pKa was 3.65.

In the case of `O=C[C@@H](O)[C@@H](O)[C@H](O)[C@H](O)C(=O)O` [M, D-mannuronic acid], the pKa is reported as 3.38.
